{
  "source": "patent US8952024B2",
  "about": "“Herbicidal pyrimidone derivatives” (E I du Pont de Nemours and Company, priority 2009, dated 2015)",
  "assay_in_all_cases": "Test B pre-/postemergence plant response",
  "assay_type_in_all_cases": "in vivo",
  "key": {"[1]": {"tested_on": "galium (catchweed bedstraw, Galium aparine)", "details": "Preemergence; for Galium plant response rating: 125 g ai/ha", "summary_of_the_method": "(§1)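 Response scores were assigned visually after 13 to 15 days in a greenhouse, comparing treated pots with controls on a 0–100 scale where 100 denotes complete control. Preemergence treatments went onto freshly seeded loam/sand soil; postemergence treatments onto plants 2 to 18 cm tall.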"}, "[2]": {"tested_on": "sunflower (common oilseed sunflower, Helianthus annuus)", "details": "Preemergence; for Sunflower plant response rating: 125 g ai/ha", "summary_of_the_method": "as §1"}, "wild oat (Avena fatua)": {"tested_on": "wild oat (Avena fatua)", "summary_of_the_method": "as §1"}, "[3]": {"tested_on": "nightshade (eastern black nightshade, Solanum ptycanthum)", "details": "Preemergence; for Nightshade plant response rating: 125 g ai/ha", "summary_of_the_method": "as §1"}, "[4]": {"tested_on": "goosegrass (Eleusine indica)", "details": "Preemergence, 62 g ai/ha; scale 0 to 100 (0 no effect, 100 complete control)"}, "[5]": {"details": "31 g ai/ha, scale 0 to 100 (0 no effect, 100 complete control)"}, "[6]": {"details": "62 g ai/ha, scale 0 to 100 (0 no effect, 100 complete control)"}, "[7]": {"details": "250 g ai/ha, Preemergence, 0 to 100 scale"}, "[8]": {"details": "Postemergence, 62 g ai/ha, scale 0 (no effect) to 100 (complete control), 13 to 15 days"}, "[9]": {"details": "Postemergence, 125 g ai/ha, visual rating after 13 to 15 days, scale 0 (no effect) to 100 (complete control)"}, "[10]": {"details": "Preemergence, 31 g ai/ha, scale 0 to 100 (0 no effect, 100 complete control)"}, "[11]": {"details": "Preemergence, 125 g ai/ha, 0 to 100 scale"}},
  "data": [
    {"smiles": "CCCCc1ncc(C(=O)C2=C(O)CCCC2=O)c(=O)n1-c1ccccc1", "note": "[Compound 42]", "values": [
      {"measurement": "Plant response rating, Galium", "setting": "[1]; 250 g ai/ha, 0 to 100 scale", "result": 50},
      {"measurement": "Plant response rating, Galium", "setting": "[1]; [5]", "result": 0},
      {"measurement": "Plant response rating, Galium", "setting": "[1]; [6]", "result": 0},
      {"measurement": "Galium plant response rating", "setting": "[1]; 0 to 100 scale", "result": 10},
      {"measurement": "Plant response rating, Sunflower", "setting": "[2]; 250 g ai/ha, 0 to 100 scale", "result": 75},
      {"measurement": "Plant response rating, Sunflower", "setting": "[2]; [5]", "result": 0},
      {"measurement": "Sunflower plant response rating", "setting": "[2]; 0 to 100 scale", "result": 55},
      {"measurement": "Plant response rating, Oat, Wild", "setting": "wild oat (Avena fatua); [7]", "result": 0},
      {"measurement": "Plant response rating, Oat, Wild", "setting": "wild oat (Avena fatua); [8]", "result": 10},
      {"measurement": "Plant response rating, Oat, Wild", "setting": "wild oat (Avena fatua); [9]", "result": 10},
      {"measurement": "Plant response rating, Oat, Wild", "setting": "wild oat (Avena fatua); [10]", "result": 0},
      {"measurement": "Oat, Wild plant response rating", "setting": "wild oat (Avena fatua); [11]", "result": 0},
      {"measurement": "Plant response rating, Nightshade", "setting": "[3]; 250 g ai/ha, 0 to 100 scale", "result": 100},
      {"measurement": "Plant response rating, Nightshade", "setting": "[3]; [5]", "result": 100},
      {"measurement": "Plant response rating, Nightshade", "setting": "[3]; [6]", "result": 100},
      {"measurement": "Nightshade plant response rating", "setting": "[3]; 0 to 100 scale", "result": 100},
      {"measurement": "Plant response rating, Goosegrass", "setting": "[4]", "result": 95}
    ]},
    {"smiles": "Cc1ccc(F)cc1-n1c(-c2ccccc2)ncc(C(=O)C2=C(O)CCCC2=O)c1=O", "note": "[Compound 44]", "values": [
      {"measurement": "Plant response rating, Galium", "setting": "[1]; 250 g ai/ha, 0 to 100 scale", "result": 98},
      {"measurement": "Plant response rating, Galium", "setting": "[1]; [5]", "result": 0},
      {"measurement": "Plant response rating, Galium", "setting": "[1]; [6]", "result": 65},
      {"measurement": "Galium plant response rating", "setting": "[1]; 0 to 100 scale", "result": 65},
      {"measurement": "Plant response rating, Sunflower", "setting": "[2]; 250 g ai/ha, 0 to 100 scale", "result": 80},
      {"measurement": "Plant response rating, Sunflower", "setting": "[2]; [5]", "result": 10},
      {"measurement": "Sunflower plant response rating", "setting": "[2]; 0 to 100 scale", "result": 75},
      {"measurement": "Plant response rating, Oat, Wild", "setting": "wild oat (Avena fatua); [7]", "result": 30},
      {"measurement": "Plant response rating, Oat, Wild", "setting": "wild oat (Avena fatua); [8]", "result": 80},
      {"measurement": "Plant response rating, Oat, Wild", "setting": "wild oat (Avena fatua); [9]", "result": 80},
      {"measurement": "Plant response rating, Oat, Wild", "setting": "wild oat (Avena fatua); [10]", "result": 0},
      {"measurement": "Oat, Wild plant response rating", "setting": "wild oat (Avena fatua); [11]", "result": 5},
      {"measurement": "Plant response rating, Nightshade", "setting": "[3]; 250 g ai/ha, 0 to 100 scale", "result": 100},
      {"measurement": "Plant response rating, Nightshade", "setting": "[3]; [5]", "result": 95},
      {"measurement": "Plant response rating, Nightshade", "setting": "[3]; [6]", "result": 98},
      {"measurement": "Nightshade plant response rating", "setting": "[3]; 0 to 100 scale", "result": 100},
      {"measurement": "Plant response rating, Goosegrass", "setting": "[4]", "result": 98}
    ]},
    {"smiles": "Cc1cccc(Cl)c1-n1c(-c2ccccc2)ncc(C(=O)C2=C(O)CCCC2=O)c1=O", "note": "[Compound 46]", "values": [
      {"measurement": "Plant response rating, Galium", "setting": "[1]; 250 g ai/ha, 0 to 100 scale", "result": 70},
      {"measurement": "Plant response rating, Galium", "setting": "[1]; [5]", "result": 0},
      {"measurement": "Plant response rating, Galium", "setting": "[1]; [6]", "result": 0},
      {"measurement": "Galium plant response rating", "setting": "[1]; 0 to 100 scale", "result": 0},
      {"measurement": "Plant response rating, Sunflower", "setting": "[2]; 250 g ai/ha, 0 to 100 scale", "result": 60},
      {"measurement": "Plant response rating, Sunflower", "setting": "[2]; [5]", "result": 0},
      {"measurement": "Sunflower plant response rating", "setting": "[2]; 0 to 100 scale", "result": 0},
      {"measurement": "Plant response rating, Oat, Wild", "setting": "wild oat (Avena fatua); [7]", "result": 0},
      {"measurement": "Plant response rating, Oat, Wild", "setting": "wild oat (Avena fatua); [8]", "result": 5},
      {"measurement": "Plant response rating, Oat, Wild", "setting": "wild oat (Avena fatua); [9]", "result": 20},
      {"measurement": "Plant response rating, Oat, Wild", "setting": "wild oat (Avena fatua); [10]", "result": 0},
      {"measurement": "Oat, Wild plant response rating", "setting": "wild oat (Avena fatua); [11]", "result": 0},
      {"measurement": "Plant response rating, Nightshade", "setting": "[3]; 250 g ai/ha, 0 to 100 scale", "result": 98},
      {"measurement": "Plant response rating, Nightshade", "setting": "[3]; [5]", "result": 95},
      {"measurement": "Plant response rating, Nightshade", "setting": "[3]; [6]", "result": 95},
      {"measurement": "Nightshade plant response rating", "setting": "[3]; 0 to 100 scale", "result": 98},
      {"measurement": "Plant response rating, Goosegrass", "setting": "[4]", "result": 95}
    ]}
  ]
}
